Assay results reported in patent US20110212968A1, “PHENETHYLAMIDE DERIVATIVES AND THEIR HETEROCYCLIC ANALOGUES” (priority 2008, published 2011).

Tests used:
human orexin-1 receptor = target: T1, human orexin-1 receptor (Homo sapiens, UniProt O43613); test: Intracellular calcium measurement (FLIPR Tetra), orexin receptor antagonistic activity, OX1; format: cell-based; details: CHO cells expressing human orexin-1 receptor, 3 nM orexin-A
T1 construct: expressed in transfected cells; host or cells: CHO (Chinese hamster ovary) cells, kept under G418 selection
T1 sequence (O43613 1-425): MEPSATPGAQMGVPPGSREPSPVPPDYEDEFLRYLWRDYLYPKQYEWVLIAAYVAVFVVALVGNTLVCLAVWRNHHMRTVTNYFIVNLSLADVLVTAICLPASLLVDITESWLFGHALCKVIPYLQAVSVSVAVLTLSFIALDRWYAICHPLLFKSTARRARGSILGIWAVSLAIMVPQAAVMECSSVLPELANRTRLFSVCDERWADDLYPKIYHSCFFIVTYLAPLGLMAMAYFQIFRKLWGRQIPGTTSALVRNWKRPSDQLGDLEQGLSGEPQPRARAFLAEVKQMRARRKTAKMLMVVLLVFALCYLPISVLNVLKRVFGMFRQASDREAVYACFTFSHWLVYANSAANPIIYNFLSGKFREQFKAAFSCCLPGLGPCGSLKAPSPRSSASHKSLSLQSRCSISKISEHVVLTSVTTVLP
Protocol: (§1) The orexin receptor antagonistic activity of the compounds of formula (I) is determined in accordance with one of the following experimental methods.
(§2) Chinese hamster ovary (CHO) cells expressing the human orexin-1 receptor and the human orexin-2 receptor, respectively, are grown in culture medium (Ham F-12 with L-Glutamine) containing 300 μg/ml G418, 100 U/ml penicillin, 100 μg/ml streptomycin and 10% heat inactivated fetal calf serum (FCS). The cells are seeded at 20,000 cells/well into 384-well black clear bottom sterile plates (Greiner). The seeded plates are incubated overnight at 37° C. in 5% CO2.
(§3) Human orexin-A as an agonist is prepared as 1 mM stock solution in MeOH:water (1:1), diluted in HBSS containing 0.1% bovine serum albumin (BSA), NaHCO3: 0.375 g/l and 20 mM HEPES for use in the assay at a final concentration of 3 nM. Antagonists are prepared as 10 mM stock solution in DMSO, then diluted in 384-well plates, first in DMSO, then in HBSS containing 0.1% bovine serum albumin (BSA), NaHCO3: 0.375 g/l and 20 mM HEPES.
(§4) On the day of the assay, 50 μl of staining buffer (HBSS containing 1% FCS, 20 mM HEPES, NaHCO3: 0.375 g/l, 5 mM probenecid (Sigma) and 3 μM of the fluorescent calcium indicator fluo-4 AM (1 mM stock solution in DMSO, containing 10% pluronic) is added to each well.
(§5) The 384-well cell-plates are incubated for 50 min at 37° C. in 5% CO2 followed by equilibration at RT for 30-120 min before measurement.
(§6) Within the Fluorescent Imaging Plate Reader (FLIPR Tetra, Molecular Devices), antagonists are added to the plate in a volume of 10 μl/well, incubated for 10 min and finally 10 μl/well of agonist is added. Fluorescence is measured for each well at 1 second intervals, and the height of each fluorescence peak is compared to the height of the fluorescence peak induced by 3 nM orexin-A with vehicle in place of antagonist. For each antagonist, the IC50 value (the concentration of compound needed to inhibit 50% of the agonistic response) is determined and may be normalized using the obtained IC50 value of a on-plate reference compound (normalized values in Table 1 are indicated by an asterisk *). With the FLIPR Tetra, two different conditions (conditions A and conditions B) were used, differing in adjustment of pipetting speed and cell splitting regime. The calculated IC50 values of the compounds may fluctuate depending on the daily cellular assay performance. Fluctuations of this kind are known to those skilled in the art.

human orexin-2 receptor = target: T2, human orexin-2 receptor (Homo sapiens, UniProt O43614); test: Intracellular calcium measurement (FLIPR Tetra), orexin receptor antagonistic activity, OX2; format: cell-based; details: CHO cells expressing human orexin-2 receptor, 3 nM orexin-A
T2 construct: expressed in transfected cells; host or cells: CHO (Chinese hamster ovary) cells, kept under G418 selection
T2 sequence (O43614 1-444): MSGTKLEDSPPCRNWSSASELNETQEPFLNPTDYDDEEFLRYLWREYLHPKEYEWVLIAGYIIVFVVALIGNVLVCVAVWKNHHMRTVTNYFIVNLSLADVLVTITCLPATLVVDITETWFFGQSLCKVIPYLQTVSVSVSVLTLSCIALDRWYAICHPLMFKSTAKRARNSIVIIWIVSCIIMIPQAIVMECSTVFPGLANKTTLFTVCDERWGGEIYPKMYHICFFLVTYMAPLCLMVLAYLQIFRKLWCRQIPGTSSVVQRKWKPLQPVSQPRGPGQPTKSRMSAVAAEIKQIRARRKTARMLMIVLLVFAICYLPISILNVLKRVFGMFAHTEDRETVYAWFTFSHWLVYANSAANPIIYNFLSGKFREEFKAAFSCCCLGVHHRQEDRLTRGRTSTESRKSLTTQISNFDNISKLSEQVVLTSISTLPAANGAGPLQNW
Protocol: as §1, §2, §3, §4, §5, §6

[1] = conditions B, normalized (*) using IC50 of on-plate reference compound

| IC50 (human orexin-1 receptor; [1]) [nM] | IC50 (human orexin-2 receptor; [1]) [nM] | IC50 (human orexin-1 receptor; conditions B) [nM] | IC50 (human orexin-2 receptor; conditions B) [nM] | SMILES | also measured |
| --- | --- | --- | --- | --- | --- |
| 576 | 185 |  |  | CN(C)c1cccc(-c2ocnc2C(=O)N(CCc2c[nH]c3ccc(F)cc23)CC2CC2)c1 [Example 261, 5-(3-Dimethylamino-phenyl)-oxazole-4-carboxylic acid cyclopropylmethyl-[2-(5-fluoro-1H-indol-3-yl)-ethyl]-amide] |  |
| 702 | 136 |  |  | Cc1ccc(-c2nccnc2C(=O)N(CCc2c[nH]c3ccc(F)cc23)CC(F)F)cc1C [Example 297, 3-(3,4-Dimethyl-phenyl)-pyrazine-2-carboxylic acid (2,2-difluoro-ethyl)-[2-(5-fluoro-1H-indol-3-yl)-ethyl]-amide] |  |
| > 5420 | 816 |  |  | Cc1ccc(-c2nccnc2C(=O)N(CCN)CCc2c[nH]c3ccc(F)cc23)cc1C [Example 434, 3-(3,4-Dimethyl-phenyl)-pyrazine-2-carboxylic acid (2-amino-ethyl)-[2-(5-fluoro-1H-indol-3-yl)-ethyl]amide] |  |
| 192 | 16 |  |  | CCCN(CCc1c[nH]c2ccc(F)cc12)C(=O)c1nccnc1-c1ccccc1 [Example 283, 3-Phenyl-pyrazine-2-carboxylic acid [2-(5-fluoro-1H-indol-3-yl)-ethyl]-propyl-amide] |  |
|  |  | 119 | 6 | COc1ccc(CCN(CC(F)(F)F)C(=O)c2nc(C)sc2-c2ccc(C)c(C)c2)cc1OC [Example 120, 5-(3,4-Dimethyl-phenyl)-2-methyl-thiazole-4-carboxylic acid [2-(3,4-dimethoxy-phenyl)-ethyl]-(2,2,2-trifluoro-ethyl)-amide] |  |
| 6000 | 214 |  |  | COc1cccc2c(CCN(CC3CC3)C(=O)c3nccnc3-c3cccc(C(F)(F)F)c3)c[nH]c12 [Example 444, 3-(3-Trifluoromethyl-phenyl)-pyrazine-2-carboxylic acid cyclopropylmethyl-[2-(7-methoxy-1H-indol-3-yl)-ethyl]-amide] |  |
|  |  | 1470 | 82 | COc1ccc(CCN(CCO)C(=O)c2nc(C)sc2-c2cccc(F)c2)cc1OC [Example 124, 5-(3-Fluoro-phenyl)-2-methyl-thiazole-4-carboxylic acid [2-(3,4-dimethoxy-phenyl)-ethyl]-(2-hydroxy-ethyl)-amide] |  |
| 292 | 50 |  |  | Cc1cncc(-c2sc(C)nc2C(=O)N(CCc2c[nH]c3ccc(F)cc23)CC2CC2)c1 [Example 426, 2-Methyl-5-(5-methyl-pyridin-3-yl)-thiazole-4-carboxylic acid cyclopropylmethyl-[2-(5-fluoro-1H-indol-3-yl)-ethyl]-amide] |  |
| 5260 | 526 |  |  | COc1ccc(-c2cccnc2C(=O)N(CCc2c[nH]c3ccc(F)cc23)CC(N)=O)cn1 [Example 313, 6′-Methoxy-[3,3′]bipyridinyl-2-carboxylic acid carbamoylmethyl-[2-(5-fluoro-1H-indol-3-yl)-ethyl]-amide] |  |
| 201 | 70 |  |  | COc1nc(C(=O)N(CCc2c[nH]c3ccc(F)cc23)CC2CC2)c(-c2cccc(C)c2)s1 [Example 275, 2-Methoxy-5-m-tolyl-thiazole-4-carboxylic acid cyclopropylmethyl-[2-(5-fluoro-1H-indol-3-yl)-ethyl]-amide] |  |
| 62 | 22 |  |  | Cc1ccc(-c2nccnc2C(=O)N(CCc2c[nH]c3cc(Cl)ccc23)CC2CC2)cc1C [Example 331, 3-(3,4-Dimethyl-phenyl)-pyrazine-2-carboxylic acid [2-(6-chloro-1H-indol-3-yl)-ethyl]-cyclopropylmethyl-amide] |  |

The remaining lines, values behind:

| SMILES | IC50 (human orexin-1 receptor; [1]) [nM] | IC50 (human orexin-2 receptor; [1]) [nM] | IC50 (human orexin-1 receptor; conditions B) [nM] | IC50 (human orexin-2 receptor; conditions B) [nM] | also measured |
| --- | --- | --- | --- | --- | --- |
| COc1ccc2[nH]cc(CC(C)N(CC3CC3)C(=O)c3nc(C)sc3-c3ccc(OC)nc3)c2c1 (racemic) [Example 385] | 23 | 25 |  |  |  |
| COc1ccc(-c2sc(C)nc2C(=O)N(CCc2cn(C)c3ccccc23)CC2CC2)cn1 [Example 341, 5-(6-Methoxy-pyridin-3-yl)-2-methyl-thiazole-4-carboxylic acid cyclopropylmethyl-[2-(1-methyl-1H-indol-3-yl)-ethyl]-amide] | 18 | 36 |  |  |  |
| COc1ccc(CCN(C(=O)c2nc(N)sc2-c2cccc(C)c2)C2CC2)cc1OC [Example 122, 2-Amino-5-m-tolyl-thiazole-4-carboxylic acid cyclopropyl-[2-(3,4-dimethoxy-phenyl)-ethyl]-amide] |  |  | 15 | 2 |  |
| COc1ccc(CCN(CC2CC2)C(=O)c2nc(C)sc2-c2ccc(C)c(C)c2)cc1C [Example 202, 5-(3,4-Dimethyl-phenyl)-2-methyl-thiazole-4-carboxylic acid cyclopropylmethyl-[2-(4-methoxy-3-methyl-phenyl)-ethyl]-amide] |  |  | 447 | 22 |  |
| Cc1cccc(-c2sc(N)nc2C(=O)N(CCc2nc3ccc(Cl)cc3[nH]2)CC2CC2)c1 [Example 220, 2-Amino-5-m-tolyl-thiazole-4-carboxylic acid [2-(6-chloro-1H-benzoimidazol-2-yl)-ethyl]-cyclopropylmethyl-amide] |  |  | 139 | 31 |  |
| COc1ccc(CCN(CC2CC2)C(=O)c2c(-c3ccccc3)nnc3ccccc23)cc1OC [Example 51, 3-Phenyl-cinnoline-4-carboxylic acid cyclopropylmethyl-[2-(3,4-dimethoxy-phenyl)-ethyl]-amide] |  |  |  |  | IC50 (human orexin-1 receptor; conditions A): 1440 nM; IC50 (human orexin-2 receptor; conditions A): 34 nM |
| Cc1cccc(-c2sc(N)nc2C(=O)N(CCc2ccc3ccccc3c2)CC2CC2)c1 [Example 167, 2-Amino-5-m-tolyl-thiazole-4-carboxylic acid cyclopropylmethyl-(2-naphthalen-2-yl-ethyl)-amide] |  |  | 171 | 45 |  |
| COc1ccc(CCN(CC2CC2)C(=O)c2ccncc2-c2cccc(C)c2)cc1OC [Example 386, N-Cyclopropylmethyl-N-[2-(3,4-dimethoxy-phenyl)-ethyl]-3-m-tolyl-isonicotinamide] |  |  | 234 | 5 |  |
| COc1ccc(CCN(CC(N)=O)C(=O)c2nc(C)sc2-c2cccc(F)c2)cc1OC [Example 131, 5-(3-Fluoro-phenyl)-2-methyl-thiazole-4-carboxylic acid carbamoylmethyl-[2-(3,4-dimethoxy-phenyl)-ethyl]-amide] |  |  | > 10000 | 49 |  |
| O=C(c1cncnc1-c1ccccc1)N(CCc1c[nH]c2ccccc12)CC1CC1 [Example 497, 4-Phenyl-pyrimidine-5-carboxylic acid cyclopropylmethyl-[2-(1H-indol-3-yl)-ethyl]-amide] | 227 | 10 |  |  |  |
